In patent US20230265116A1, “DEGRADATION OF (EGFR) BY CONJUGATION OF EGFR INHIBITORS WITH E3 LIGASE LIGAND AND METHODS OF USE” (BEIGENE, LTD., priority 2020, published 2023):
Like-named read-outs stand apart in the source and are kept apart here.

Columns and labels:
[1] = biological target: T1, EGFR L858R/T790M/C797S (BaF3-LTC cells) (Homo sapiens, UniProt P00533, C797S/L858R/T790M); assay: EGFR degradation HTRF assay, BaF3-LTC cells; type: cell-based
T1 construct: expressed in transfected cells; host or cells: BaF3
T1 sequence (P00533 25-1210 T790M/C797S/L858R): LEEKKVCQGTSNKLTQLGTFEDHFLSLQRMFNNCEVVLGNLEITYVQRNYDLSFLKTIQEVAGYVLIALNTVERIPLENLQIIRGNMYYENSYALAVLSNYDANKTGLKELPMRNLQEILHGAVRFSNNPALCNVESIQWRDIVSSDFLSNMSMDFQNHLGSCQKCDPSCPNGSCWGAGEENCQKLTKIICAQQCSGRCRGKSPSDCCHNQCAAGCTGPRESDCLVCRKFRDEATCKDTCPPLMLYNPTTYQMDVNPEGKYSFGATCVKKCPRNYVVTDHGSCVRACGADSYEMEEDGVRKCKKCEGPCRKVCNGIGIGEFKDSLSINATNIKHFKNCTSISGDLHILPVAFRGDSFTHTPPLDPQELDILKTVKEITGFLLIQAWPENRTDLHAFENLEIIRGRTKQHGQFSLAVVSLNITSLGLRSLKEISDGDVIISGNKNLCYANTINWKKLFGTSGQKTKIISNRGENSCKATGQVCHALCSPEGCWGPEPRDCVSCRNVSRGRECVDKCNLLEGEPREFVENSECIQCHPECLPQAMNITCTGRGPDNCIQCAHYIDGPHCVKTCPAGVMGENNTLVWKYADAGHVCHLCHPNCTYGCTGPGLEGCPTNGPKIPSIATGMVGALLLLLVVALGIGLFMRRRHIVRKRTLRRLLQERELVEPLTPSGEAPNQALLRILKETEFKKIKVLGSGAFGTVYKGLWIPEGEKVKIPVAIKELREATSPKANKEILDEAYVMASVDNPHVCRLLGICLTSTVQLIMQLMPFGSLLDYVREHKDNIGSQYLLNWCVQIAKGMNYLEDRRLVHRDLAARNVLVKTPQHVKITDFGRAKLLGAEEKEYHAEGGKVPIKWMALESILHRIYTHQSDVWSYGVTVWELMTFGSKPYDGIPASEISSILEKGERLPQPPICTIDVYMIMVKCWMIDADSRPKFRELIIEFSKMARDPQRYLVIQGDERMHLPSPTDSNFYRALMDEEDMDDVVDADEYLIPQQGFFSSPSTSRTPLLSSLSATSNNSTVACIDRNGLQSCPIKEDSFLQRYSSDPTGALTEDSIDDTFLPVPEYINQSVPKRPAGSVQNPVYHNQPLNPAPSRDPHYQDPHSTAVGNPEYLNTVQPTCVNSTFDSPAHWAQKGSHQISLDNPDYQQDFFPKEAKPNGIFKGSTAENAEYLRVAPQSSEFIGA
Outline: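 EGFR remaining after a 16 h, 37 °C exposure (8 doses, 5-fold steps from 10 uM final, 0.2% DMSO) was quantified by HTRF antibodies in cell lysate. Percent inhibition relative to DMSO control was fitted by four-parameter logistic to give DC50; Dmax denotes maximal degradation.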

[2] = system: EGFR Del19/T790M/C797S (H1975-clone #28); assay: EGFR degradation HTRF assay, H1975-clone #28 DTC cells; type: cell-based
Outline: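 Cells were dosed on day 2 with an 8-point, 5-fold dilution series starting at 10 uM final and incubated 16h at 37° C. After lysis for 1 hour, HTRF antibodies were added overnight at room temperature and the plate was read at 665/620 nm. Degradation was normalised to DMSO wells and fitted for DC50 and Dmax.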

[3] = BaF3-LTC cells; EGFR degradation, IC50 (DC50) from curve fit; read-out: DC50(nM) BaF3-LTC
[4] = BaF3-LTC cells; maximum percentage of inhibition (degradation); read-out: Dmax (%) BaF3-LTC
[5] = H1975 # 28 DTC cells; EGFR degradation, IC50 (DC50) from curve fit; read-out: DC50(nM) H1975 # 28 DTC
[6] = H1975 # 28 DTC cells; maximum percentage of inhibition (degradation)

| Structure (SMILES) | DC50 [1, 3] | Dmax [1, 4] | DC50 [2, 5] | Dmax (%) H1975 # 28 DTC [2, 6] | DC50 ([1]; read-out: DC50(nM) BaF3-LTC; BaF3-LTC cells; EGFR degradation, IC50 (DC50) from curve fit) | Dmax ([1]; read-out: Dmax (%) BaF3-LTC, BaF3-LTC cells; maximum percentage of inhibition (degradation)) | DC50 ([2]; read-out: DC50(nM) H1975 # 28 DTC; H1975 # 28 DTC cells; EGFR degradation, IC50 (DC50) from curve fit) |
| --- | --- | --- | --- | --- | --- | --- | --- |
| CCc1cc(Nc2ncc(Br)c(Nc3ccc4nc(NC5CC5)ccc4c3P(C)(C)=O)n2)c(OC)cc1N1CCC(N2CCN(CCc3cc(F)c([C@H]4CCC(=O)NC4=O)c(F)c3)CC2)CC1 [Example 653, (R)-3-(4-(2-(4-(1-(4-((5-bromo-4-((2-(cyclopropylamino)-5-(dimethylphosphoryl)quinolin-6-yl)amino)pyrimidin-2-yl)amino)-2-ethyl-5-methoxyphenyl)piperidin-4-yl)piperazin-1-yl)ethyl)-2,6-difluorophenyl)piperidine-2,6-dione] | 7.19 nM | 87.7% | 0.7 nM | 87.89% | – | – | – |
| CCc1cc(Nc2ncc(Br)c(Nc3ccc4c(=O)n(C)ncc4c3P(C)(C)=O)n2)c(OC)cc1N1CCC(N2CCN(CCc3ccc4c(c3)oc(=O)n4C3CCC(=O)NC3=O)CC2)CC1 (stereo not shown) [Example 523, 3-(6-(2-(4-(1-(4-((5-bromo-4-((5-(dimethylphosphoryl)-2-methyl-1-oxo-1,2-dihydrophthalazin-6-yl)amino)pyrimidin-2-yl)amino)-2-ethyl-5-methoxyphenyl)piperidin-4-yl)piperazin-1-yl)ethyl)-2-oxobenzo[d]oxazol-3(2H)-yl)piperidine-2,6-dione] | 1.97 nM | 95.9% | 0.571 nM | 72.16% | – | – | – |
| CCc1cc(Nc2ncc(Br)c(Nc3ccc4nc(C)ccc4c3P(C)(C)=O)n2)c(OC2CC2)cc1N1CCC(N2CCN(CCc3cc4oc(=O)n(C5CCC(=O)NC5=O)c4cc3F)CC2)CC1 (stereo not shown) [Example 601, 3-(6-(2-(4-(1-(4-((5-bromo-4-((5-(dimethylphosphoryl)-2-methylquinolin-6-yl)amino)pyrimidin-2-yl)amino)-5-cyclopropoxy-2-ethylphenyl)piperidin-4-yl)piperazin-1-yl)ethyl)-5-fluoro-2-oxobenzo[d]oxazol-3(2H)-yl)piperidine-2,6-dione] | 8.64 nM | 89.5% | 0.632 nM | 77.35% | – | – | – |
| CCc1ccc2c(P(C)(C)=O)c(Nc3nc(Nc4cc(CC)c(N5CCC(N6CCN(C(=O)Cc7ccc8c(c7)oc(=O)n8C7CCC(=O)NC7=O)CC6)CC5)cc4OC)ncc3Br)ccc2n1 (stereo not shown) [Example 669, 3-(6-(2-(4-(1-(4-((5-bromo-4-((5-(dimethylphosphoryl)-2-ethylquinolin-6-yl)amino)pyrimidin-2-yl)amino)-2-ethyl-5-methoxyphenyl)piperidin-4-yl)piperazin-1-yl)-2-oxoethyl)-2-oxobenzo[d]oxazol-3(2H)-yl)piperidine-2,6-dione] | – | – | – | 73.26% | 4.06 nM | 91.1% | 0.59 nM |
| CCc1ccc2c(P(C)(C)=O)c(Nc3nc(Nc4cc(CC)c(N5CCC(N6CCN(C(=O)Cc7cccc8c7n(C)c(=O)n8C7CCC(=O)NC7=O)CC6)CC5)cc4OC)ncc3Br)cc(F)c2n1 (stereo not shown) [Example 671, 3-(4-(2-(4-(1-(4-((5-bromo-4-((5-(dimethylphosphoryl)-2-ethyl-8-fluoroquinolin-6-yl)amino)pyrimidin-2-yl)amino)-2-ethyl-5-methoxyphenyl)piperidin-4-yl)piperazin-1-yl)-2-oxoethyl)-3-methyl-2-oxo-2,3-dihydro-1H-benzo[d]imidazol-1-yl)piperidine-2,6-dione] | 4.85 nM | 92.7% | 0.219 nM | 75.9% | – | – | – |
| CCOc1cc(N2CCC(N3CCN(CCc4cc(F)c([C@H]5CCC(=O)NC5=O)c(F)c4)CC3)CC2)c(CC)cc1Nc1ncc(Br)c(Nc2ccc3nc(CC)c(F)cc3c2P(C)(C)=O)n1 [Example 588, (R)-3-(4-(2-(4-(1-(4-((5-bromo-4-((5-(dimethylphosphoryl)-2-ethyl-3-fluoroquinolin-6-yl)amino)pyrimidin-2-yl)amino)-5-ethoxy-2-ethylphenyl)piperidin-4-yl)piperazin-1-yl)ethyl)-2,6-difluorophenyl)piperidine-2,6-dione] | 18.4 nM | 87.5% | 1.94 nM | 84.46% | – | – | – |
| CCOc1cc(N2CCC(N3CCN(CCc4cc(F)c([C@H]5CCC(=O)NC5=O)c(F)c4)CC3)CC2)c(CC)cc1Nc1nccc(Nc2cc(F)c3nc(CC)ccc3c2P(C)(C)=O)n1 [Example 591, (R)-3-(4-(2-(4-(1-(4-((4-((5-(dimethylphosphoryl)-2-ethyl-8-fluoroquinolin-6-yl)amino)pyrimidin-2-yl)amino)-5-ethoxy-2-ethylphenyl)piperidin-4-yl)piperazin-1-yl)ethyl)-2,6-difluorophenyl)piperidine-2,6-dione] | 72.7 nM | 75% | 1.57 nM | 75.79% | – | – | – |

The next lines start with results.

| DC50 [1, 3] | Dmax [1, 4] | DC50 [2, 5] | Structure (SMILES) | Dmax (%) H1975 # 28 DTC [2, 6] | DC50 ([1]; read-out: DC50(nM) BaF3-LTC; BaF3-LTC cells; EGFR degradation, IC50 (DC50) from curve fit) | Dmax ([1]; read-out: Dmax (%) BaF3-LTC, BaF3-LTC cells; maximum percentage of inhibition (degradation)) | DC50 ([2]; read-out: DC50(nM) H1975 # 28 DTC; H1975 # 28 DTC cells; EGFR degradation, IC50 (DC50) from curve fit) |
| --- | --- | --- | --- | --- | --- | --- | --- |
| 5.23 nM | 81.1% | 1.35 nM | CCc1cc(Nc2ncc(Br)c(Nc3ccc4nc(NC5CC5)ccc4c3P(C)(C)=O)n2)c(OC)cc1N1CCC(N2CCN(C(=O)[C@@H]3CCN(c4cc(F)c([C@H]5CCC(=O)NC5=O)c(F)c4)C3)CC2)CC1 [Example 652, (R)-3-(4-((R)-3-(4-(1-(4-((5-bromo-4-((2-(cyclopropylamino)-5-(dimethylphosphoryl)quinolin-6-yl)amino)pyrimidin-2-yl)amino)-2-ethyl-5-methoxyphenyl)piperidin-4-yl)piperazine-1-carbonyl)pyrrolidin-1-yl)-2,6-difluorophenyl)piperidine-2,6-dione] | 86.65% | – | – | – |
| 8.65 nM | 91% | 1.14 nM | CCOc1cc(N2CCC(N3CCN(CCCc4cccc5c4oc(=O)n5C4CCC(=O)NC4=O)CC3)CC2)c(CC)cc1Nc1ncc(Br)c(Nc2ccc3nc(CC)ccc3c2P(C)(C)=O)n1 (stereo not shown) [Example 630, 3-(7-(3-(4-(1-(4-((5-bromo-4-((5-(dimethylphosphoryl)-2-ethylquinolin-6-yl)amino)pyrimidin-2-yl)amino)-5-ethoxy-2-ethylphenyl)piperidin-4-yl)piperazin-1-yl)propyl)-2-oxobenzo[d]oxazol-3(2H)-yl)piperidine-2,6-dione] | 72.34% | – | – | – |
| 43.1 nM | 83.8% | 5.75 nM | CCOc1cc(N2CCC(N3CCN(CCc4cc5oc(=O)n(C6CCC(=O)NC6=O)c5cc4C(F)(F)F)CC3)CC2)c(CC)cc1Nc1ncc(Br)c(Nc2ccc3nc(CC)ccc3c2P(C)(C)=O)n1 (stereo not shown) [Example 616, 3-(6-(2-(4-(1-(4-((5-bromo-4-((5-(dimethylphosphoryl)-2-ethylquinolin-6-yl)amino)pyrimidin-2-yl)amino)-5-ethoxy-2-ethylphenyl)piperidin-4-yl)piperazin-1-yl)ethyl)-2-oxo-5-(trifluoromethyl)benzo[d]oxazol-3(2H)-yl)piperidine-2,6-dione] | 70.93% | – | – | – |
| 5.29 nM | 95% | 0.787 nM | CCc1cc(Nc2ncc(Br)c(Nc3ccc4nc(C)sc4c3P(C)(C)=O)n2)c(OC)cc1N1CCC(N2CCN(C(=O)[C@@H]3CCN(c4cc(F)c([C@H]5CCC(=O)NC5=O)c(F)c4)C3)CC2)CC1 [Example 685, (R)-3-(4-((R)-3-(4-(1-(4-((5-bromo-4-((7-(dimethylphosphoryl)-2-methylbenzo[d]thiazol-6-yl)amino)pyrimidin-2-yl)amino)-2-ethyl-5-methoxyphenyl)piperidin-4-yl)piperazine-1-carbonyl)pyrrolidin-1-yl)-2,6-difluorophenyl)piperidine-2,6-dione] | 83.23% | – | – | – |
| 53.2 nM | 74.2% | 2.14 nM | CCOc1cc(N2CCC(N3CCN(CCc4cc(OC)cc5c4oc(=O)n5C4CCC(=O)NC4=O)CC3)CC2)c(CC)cc1Nc1ncc(Br)c(Nc2ccc3nc(CC)ccc3c2P(C)(C)=O)n1 (stereo not shown) [Example 618, 3-(7-(2-(4-(1-(4-((5-bromo-4-((5-(dimethylphosphoryl)-2-ethylquinolin-6-yl)amino)pyrimidin-2-yl)amino)-5-ethoxy-2-ethylphenyl)piperidin-4-yl)piperazin-1-yl)ethyl)-5-methoxy-2-oxobenzo[d]oxazol-3(2H)-yl)piperidine-2,6-dione] | 74.88% | – | – | – |
| 11.2 nM | 92.1% | 0.91 nM | CCOc1cc(N2CCC(N3CCN(CCOCCc4cccc5c4oc(=O)n5C4CCC(=O)NC4=O)CC3)CC2)c(CC)cc1Nc1ncc(Br)c(Nc2ccc3nc(CC)ccc3c2P(C)(C)=O)n1 (stereo not shown) [Example 619, 3-(7-(2-(2-(4-(1-(4-((5-bromo-4-((5-(dimethylphosphoryl)-2-ethylquinolin-6-yl)amino)pyrimidin-2-yl)amino)-5-ethoxy-2-ethylphenyl)piperidin-4-yl)piperazin-1-yl)ethoxy)ethyl)-2-oxobenzod[d]oxazol-3(2H)-yl)piperidine-2,6-dione] | 62.88% | – | – | – |
